# From patent publication US6984649B1, “Pyridine derivatives” (Bayer Aktiengesellschaft, priority 2000, dated 2006)
# System: A549 human lung epithelium cell line
# Assay: RANTES production in response to TNF-α from A549 cells
# Assay type: cell-based
# Details: Homo sapiens, A549, A549 cells, 100 ng/ml TNF-α, read-out: Cellular activity grade (A549) (Cellular IC50)
# In short: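 Cells (4×10^4/well) in D-MEM/10% FCS preincubated 1 h at 37 °C with compound in 1% DMSO, then stimulated with 100 ng/ml TNF-α for 24 h. Supernatant RANTES quantified by Eu-labelled sandwich immunoassay (time-resolved fluorescence, ex 340/em 615 nm) against recombinant human RANTES standard.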
row,SMILES,IC50
1,O=c1[nH]c2nc(-c3c(O)cccc3OCC3CC3)cc(C3CCCNC3)c2cc1[N+](=O)[O-] (centres unmarked) [Example 25-05],1 to 10 µM
2,N#Cc1cc2c(C3CCCNC3)cc(-c3c(O)cccc3OCC3CC3)nc2[nH]c1=O (centres unmarked) [Example 25-06],< 1 µM
3,O=c1[nH]c2nc(-c3c(O)cccc3OCC3CC3)cc(C3CCCNC3)c2cc1S(=O)(=O)c1ccccc1 (centres unmarked) [Example 25-07],< 1 µM
4,NC(=O)c1cc2c(C3CCCNC3)cc(-c3c(O)cccc3OCC3CC3)nc2[nH]c1=O (centres unmarked) [Example 25-08],< 1 µM
5,CCOC(=O)C1Cc2c(C3CCCNC3)cc(-c3c(O)cccc3OCC3CC3)nc2NC1=O (centres unmarked) [Example 26-03],< 1 µM
6,CCOC(=O)C1Cc2c(C3CCNCC3)cc(-c3c(O)cccc3OCC3CC3)nc2NC1=O (centres unmarked) [Example 26-04],< 1 µM
7,NC(=O)C1Cc2c(C3CCCNC3)cc(-c3c(O)cccc3OCC3CC3)nc2NC1=O (centres unmarked) [Example 26-05],< 1 µM
8,CCCOc1cccc(O)c1-c1cc(C2CCCNC2)c2c(n1)NC(=O)C(C(=O)OCC)C2 (centres unmarked) [Example 26-06],< 1 µM
9,CCCOc1cccc(O)c1-c1cc(C2CCCNC2)c2c(n1)NC(=O)CC2 (centres unmarked) [Example 27-02],< 1 µM
10,"O=C1CCc2c(C3CCCNC3)cc(-c3c(O)cccc3OCC3CC3)nc2N1 (centres unmarked) [Example 27-03, 7-[2-(cyclopropylmethoxy)-6-hydroxyphenyl]-5-(3-piperidinyl)-3,4-dihydro-1,8-naphthyridin-2(1H)-one]",< 1 µM
11,O=C1CCc2c(C3CCNCC3)cc(-c3c(O)cccc3OCC3CC3)nc2N1 [Example 27-04],< 1 µM
12,CCCOc1cccc(O)c1-c1cc(C2CCNCC2)c2c(n1)NC(=O)CC2 [Example 27-05],< 1 µM
13,CNC(=O)c1cc2c(C3CCCNC3)cc(-c3c(O)cccc3OCC3CC3)nc2[nH]c1=O (centres unmarked) [Example 31-03],< 1 µM
14,CN(C)C(=O)c1cc2c(C3CCCNC3)cc(-c3c(O)cccc3OCC3CC3)nc2[nH]c1=O (centres unmarked) [Example 31-04],1 to 10 µM
15,O=C(c1cc2c(C3CCCNC3)cc(-c3c(O)cccc3OCC3CC3)nc2[nH]c1=O)N1CCCC1 (centres unmarked) [Example 31-05],1 to 10 µM
16,O=C(NCc1ccccc1)c1cc2c(C3CCCNC3)cc(-c3c(O)cccc3OCC3CC3)nc2[nH]c1=O (centres unmarked) [Example 31-06],< 1 µM
17,COCCNC(=O)c1cc2c(C3CCCNC3)cc(-c3c(O)cccc3OCC3CC3)nc2[nH]c1=O (centres unmarked) [Example 31-07],< 1 µM
18,O=C(c1cc2c(C3CCCNC3)cc(-c3c(O)cccc3OCC3CC3)nc2[nH]c1=O)N1CCOCC1 (centres unmarked) [Example 31-08],1 to 10 µM
19,O=C(c1cc2c(C3CCCNC3)cc(-c3c(O)cccc3OCC3CC3)nc2[nH]c1=O)N1CCNCC1 (centres unmarked) [Example 31-09],> 10 µM

row,SMILES,IC50
1,CC(C)NC(=O)c1cc2c(C3CCCNC3)cc(-c3c(O)cccc3OCC3CC3)nc2[nH]c1=O (centres unmarked) [Example 31-10],< 1 µM
2,CN(C)CCNC(=O)c1cc2c(C3CCCNC3)cc(-c3c(O)cccc3OCC3CC3)nc2[nH]c1=O (centres unmarked) [Example 31-11],< 1 µM
3,O=C(NC1Cc2ccccc2C1)c1cc2c(C3CCCNC3)cc(-c3c(O)cccc3OCC3CC3)nc2[nH]c1=O (centres unmarked) [Example 31-12],< 1 µM
4,O=C(NC(c1ccccc1)c1ccccc1)c1cc2c(C3CCCNC3)cc(-c3c(O)cccc3OCC3CC3)nc2[nH]c1=O (centres unmarked) [Example 31-13],< 1 µM
5,C[C@H](NC(=O)c1cc2c(C3CCCNC3)cc(-c3c(O)cccc3OCC3CC3)nc2[nH]c1=O)c1ccccc1 (some centres unmarked) [Example 31-14],< 1 µM
6,C[C@@H](NC(=O)c1cc2c(C3CCCNC3)cc(-c3c(O)cccc3OCC3CC3)nc2[nH]c1=O)c1ccccc1 (some centres unmarked) [Example 31-15],< 1 µM
7,C[C@H](NC(=O)c1cc2c(C3CCCNC3)cc(-c3c(O)cccc3OCC3CC3)nc2[nH]c1=O)C(=O)O (some centres unmarked) [Example 31-16],1 to 10 µM
8,O=C(NCCc1ccccc1)c1cc2c(C3CCCNC3)cc(-c3c(O)cccc3OCC3CC3)nc2[nH]c1=O (centres unmarked) [Example 31-17],1 to 10 µM
9,O=C(NC1CCCCC1)c1cc2c(C3CCCNC3)cc(-c3c(O)cccc3OCC3CC3)nc2[nH]c1=O (centres unmarked) [Example 31-18],< 1 µM
10,O=C(NCC1CCCCC1)c1cc2c(C3CCCNC3)cc(-c3c(O)cccc3OCC3CC3)nc2[nH]c1=O (centres unmarked) [Example 31-19],> 10 µM
11,O=C(NCCO)c1cc2c(C3CCCNC3)cc(-c3c(O)cccc3OCC3CC3)nc2[nH]c1=O (centres unmarked) [Example 31-20],1 to 10 µM
12,O=C(NC1CC1)c1cc2c(C3CCCNC3)cc(-c3c(O)cccc3OCC3CC3)nc2[nH]c1=O (centres unmarked) [Example 31-21],< 1 µM
13,O=C(NC1CCC1)c1cc2c(C3CCCNC3)cc(-c3c(O)cccc3OCC3CC3)nc2[nH]c1=O (centres unmarked) [Example 31-22],< 1 µM
14,O=C(NC1CCCC1)c1cc2c(C3CCCNC3)cc(-c3c(O)cccc3OCC3CC3)nc2[nH]c1=O (centres unmarked) [Example 31-23],< 1 µM
15,O=C(NC1CCCCCC1)c1cc2c(C3CCCNC3)cc(-c3c(O)cccc3OCC3CC3)nc2[nH]c1=O (centres unmarked) [Example 31-24],< 1 µM
16,CCC(CC)NC(=O)c1cc2c(C3CCCNC3)cc(-c3c(O)cccc3OCC3CC3)nc2[nH]c1=O (centres unmarked) [Example 31-25],< 1 µM
17,CCCC(CCC)NC(=O)c1cc2c(C3CCCNC3)cc(-c3c(O)cccc3OCC3CC3)nc2[nH]c1=O (centres unmarked) [Example 31-26],< 1 µM
18,O=C(NCC(F)(F)F)c1cc2c(C3CCCNC3)cc(-c3c(O)cccc3OCC3CC3)nc2[nH]c1=O (centres unmarked) [Example 31-27],< 1 µM

# More lines, now with the values ahead:
row,IC50,SMILES
1,> 10 µM,N#Cc1c(N2CCCC(C(N)=O)C2)cc(-c2ccccc2O)nc1N (centres unmarked) [Example 34-06]
2,1 to 10 µM,N#Cc1c(NC2CCNCC2)cc(-c2ccccc2O)nc1N [Example 34-07]
3,1 to 10 µM,N#Cc1c(N2CCCNCC2)cc(-c2ccccc2O)nc1N [Example 34-08]
4,1 to 10 µM,N#Cc1c(N2CCNCC2)cc(-c2ccccc2O)nc1N [Example 34-09]
5,< 1 µM,N#Cc1c(NCCN)cc(-c2ccccc2O)nc1N [Example 34-10]
6,1 to 10 µM,N#Cc1c(NCCCN)cc(-c2ccccc2O)nc1N [Example 34-11]
7,< 1 µM,CNCCNc1cc(-c2ccccc2O)nc(N)c1C#N [Example 34-12]
8,< 1 µM,N#Cc1c(NCCNCc2ccccc2)cc(-c2ccccc2O)nc1N [Example 34-13]
9,< 1 µM,N#Cc1c(NCCNCc2ccccc2)cc(-c2c(O)cccc2OCC2CC2)nc1N [Example 34-15]
10,< 1 µM,N#Cc1c(NCCNC(=O)c2ccccc2)cc(-c2c(O)cccc2OCC2CC2)nc1N [Example 34-16]
11,> 10 µM,N#Cc1c(NCCNS(=O)(=O)c2ccccc2)cc(-c2c(O)cccc2OCC2CC2)nc1N [Example 34-17]
12,< 1 µM,N#Cc1c(NCCNC(=O)Nc2ccccc2)cc(-c2c(O)cccc2OCC2CC2)nc1N [Example 34-18]
13,< 1 µM,CC(=O)NCCNc1cc(-c2c(O)cccc2OCC2CC2)nc(N)c1C#N [Example 34-19]
